Experimental findings from patent publication US20180002288A1, “USE OF PICOLINAMIDES AS FUNGICIDES” (DOW AGROSCIENCES LLC, priority 2014, published 2018) are described below.

Where two headings read alike, the source gives them in different places. Where only a bound is given, the exact number is not on record here.

For one experiment, the system named is Zymoseptoria tritici. In words: Leaf Blotch of Wheat fungicidal activity (SEPTTR). Type of experiment: in vivo. To be noted: for pest or weed control at 100 ppm: wheat, high volume; for pest or weed control at 121.5 g/ha: Low Volume Cereal Activity at 121.5 g/Ha. On the procedure: (§1) All fungicides were evaluated using the aforementioned method for their activity vs. all target diseases, unless stated otherwise. Wheat leaf blotch and brown rust activity were also evaluated using track spray applications, in which case the fungicides were formulated as EC formulations, containing 0.1% Trycol 5941 in the spray solutions. Wheat plants (variety Yuma) were grown from seed in a greenhouse in 50% mineral soil/50% soil-less Metro mix until the first leaf was fully emerged, with 7-10 seedlings per pot. These plants were inoculated with an aqueous spore suspension of Zymoseptoria tritici either prior to or after fungicide treatments. After inoculation the plants were kept in 100% relative humidity (one day in a dark dew chamber followed by two to three days in a lighted dew chamber at 20° C.) to permit spores to germinate and infect the leaf. The plants were then transferred to a greenhouse set at 20° C. for disease to develop. When disease symptoms were fully expressed on the 1st leaves of untreated plants, infection levels were assessed on a scale of 0 to 100 percent disease severity. Percent disease control was calculated using the ratio of disease severity on treated plants relative to untreated plants.

For the next experiment, the system named is Puccinia triticina. The experiment can be described thus: Wheat Brown Rust fungicidal activity (PUCCRT). Particulars: for pest or weed control at 100 ppm: wheat, high volume; for pest or weed control at 121.5 g/ha: Low Volume Cereal Activity at 121.5 g/Ha. Type of experiment: in vivo. As for the experimental part:
as §1, with “plants. Wheat plants (variety Yuma) were grown from seed in a greenhouse in 50% mineral soil/50% soil-less Metro mix until the first leaf was fully emerged, with 7-10 seedlings per pot. These plants were inoculated with an aqueous spore suspension of Puccinia triticina either prior to or after fungicide treatments. […] The plants were then transferred to a greenhouse set at 24° C. for disease to develop. Fungicide formulation, application and disease assessment followed the procedures as described in the Example A.” for “plants.”

Where [1] appears, read: 24 h, 1 Day Protectant, read-out: SEPTTR 1DP % Control rating.
The mark [2] stands for this setting: 72 h, 3 Day Curative, read-out: SEPTTR 3DC % Control rating.
[3] abbreviates: 24 h, 1 Day Protectant, read-out: PUCCRT 1DP % Control rating.
[4] abbreviates: 72 h, 3 Day Curative, read-out: PUCCRT 3DC % Control rating.
The mark [5] stands for this setting: 24 h, 1 Day Protectant, read-out: SEPTTR 1DP (Wheat Leaf Blotch, 1 Day Protectant).
Setting [6] is: 72 h, 3 Day Curative, read-out: SEPTTR 3DC (Wheat Leaf Blotch, 3 Day Curative).
Setting [7] is: 24 h, 1 Day Protectant, read-out: PUCCRT 1DP (Wheat Brown Rust, 1 Day Protectant).
The mark [8] stands for this setting: 72 h, 3 Day Curative, read-out: PUCCRT 3DC (Wheat Brown Rust, 3 Day Curative).

For `COc1ccnc(C(=O)N[C@@H](C)C(=O)O[C@@H](C)[C@H](Oc2cc(F)cc(Cl)c2)c2ccccc2)c1O` [Example 122], the pest or weed control at 100 ppm with Zymoseptoria tritici (setting [1]), with Zymoseptoria tritici (setting [2]), in the experiment with Puccinia triticina (setting [3]) and in the experiment on Puccinia triticina (setting [4]) was > 80% throughout.

For `COc1ccnc(C(=O)N[C@@H](C)C(=O)O[C@@H](C)[C@H](Oc2ccccc2)c2cccc(-c3ccccc3)c2)c1OCOC(C)=O` [Example 240], the pest or weed control at 121.5 g/ha with Zymoseptoria tritici (setting [5]) is > 80%; with Zymoseptoria tritici (setting [6]), > 80%; with Puccinia triticina (setting [7]) it was > 80%; in the experiment on Puccinia triticina (setting [8]), < 80%.

`COc1ccnc(C(=O)N[C@@H](C)C(=O)O[C@@H](C)[C@H](Oc2ccc(Cl)cc2Cl)c2ccccc2)c1OC(C)=O` [Example 200]: the pest or weed control at 121.5 g/ha with Zymoseptoria tritici (setting [5]) was > 80%; in the experiment with Zymoseptoria tritici (setting [6]), > 80%; in the experiment with Puccinia triticina (setting [7]) it was > 80%; in the experiment with Puccinia triticina (setting [8]), < 80%.

For the compound `COc1ccnc(C(=O)N[C@@H](C)C(=O)O[C@@H](C)[C@@H](Oc2ccccc2)c2cccnc2)c1OC(C)=O` [Example 211], the pest or weed control at 121.5 g/ha is < 0% with Zymoseptoria tritici (setting [5]), < 80% in the experiment with Zymoseptoria tritici (setting [6]), < 0% with Puccinia triticina (setting [7]) and < 80% with Puccinia triticina (setting [8]).

As for `COc1ccnc(C(=O)N[C@@H](C)C(=O)O[C@@H](C)[C@H](Oc2cccc(F)c2)c2cccc(-c3ccccc3)c2)c1OCOC(C)=O` [Example 221], the pest or weed control at 121.5 g/ha is > 80% in the experiment with Zymoseptoria tritici (setting [5]), < 80% with Zymoseptoria tritici (setting [6]), > 80% with Puccinia triticina (setting [7]) and < 80% in the experiment with Puccinia triticina (setting [8]).

Turning to `COc1ccnc(C(=O)N[C@@H](C)C(=O)O[C@@H](C)[C@H](Oc2ccc(C)cc2)c2ccc(F)cc2)c1OC(C)=O` [Example 247], the pest or weed control at 121.5 g/ha in the experiment on Zymoseptoria tritici (setting [5]), in the experiment with Zymoseptoria tritici (setting [6]), in the experiment with Puccinia triticina (setting [7]) and in the experiment with Puccinia triticina (setting [8]) was > 80% each time.

Consider `COc1ccnc(C(=O)N[C@@H](C)C(=O)O[C@@H](C)[C@H](Oc2ccccc2)c2ccc(C)cc2F)c1O` [Example 164], for which the pest or weed control at 100 ppm in the experiment on Zymoseptoria tritici (setting [1]), with Zymoseptoria tritici (setting [2]), with Puccinia triticina (setting [3]) and in the experiment with Puccinia triticina (setting [4]) was > 80% in each case.

Consider `COc1ccnc(C(=O)N[C@H](C)C(=O)O[C@H](C)[C@@H](Oc2ccccc2)c2ccccc2)c1O` [Example 116], for which the pest or weed control at 100 ppm with Zymoseptoria tritici (setting [1]) was < 0%; in the experiment with Zymoseptoria tritici (setting [2]) it was < 80%; with Puccinia triticina (setting [3]), < 0%; in the experiment with Puccinia triticina (setting [4]) it was < 0%.

Turning to `COc1ccnc(C(=O)N[C@@H](C)C(=O)O[C@@H](C)[C@H](Oc2ccc(C)cc2)c2ccc(C)cc2)c1OCOC(C)=O` [Example 257], the pest or weed control at 121.5 g/ha in the experiment with Zymoseptoria tritici (setting [5]), in the experiment with Zymoseptoria tritici (setting [6]), in the experiment on Puccinia triticina (setting [7]) and in the experiment on Puccinia triticina (setting [8]) was > 80% throughout.

As for `COc1ccnc(C(=O)N[C@@H](C)C(=O)O[C@@H](C)[C@H](Oc2cccc(F)c2)c2cccc(-c3ccccc3)c2)c1OC(C)=O` [Example 223], the pest or weed control at 121.5 g/ha in the experiment with Zymoseptoria tritici (setting [5]) was > 80%; in the experiment with Zymoseptoria tritici (setting [6]) it was > 80%; in the experiment with Puccinia triticina (setting [7]), > 80%; in the experiment with Puccinia triticina (setting [8]), < 80%.

For the compound `COc1ccnc(C(=O)N[C@@H](C)C(=O)O[C@@H](C)[C@H](Oc2ccc(C)cc2)c2ccccc2)c1OC(C)=O` [Example 246], the pest or weed control at 121.5 g/ha in the experiment with Zymoseptoria tritici (setting [5]), in the experiment with Zymoseptoria tritici (setting [6]), in the experiment with Puccinia triticina (setting [7]) and with Puccinia triticina (setting [8]) was > 80% in each case.

Consider `COc1ccnc(C(=O)N[C@@H](C)C(=O)O[C@@H](C)[C@H](Oc2ccc(Cl)cc2Cl)c2ccccc2)c1O` [Example 120], for which the pest or weed control at 100 ppm was > 80% in the experiment with Zymoseptoria tritici (setting [1]), < 80% in the experiment with Zymoseptoria tritici (setting [2]), > 80% in the experiment with Puccinia triticina (setting [3]) and < 80% in the experiment on Puccinia triticina (setting [4]).

For `CCCO[C@@H](c1ccccc1)[C@H](C)OC(=O)[C@H](C)NC(=O)c1nccc(OC)c1O` [Example 138], the pest or weed control at 100 ppm was < 80% in the experiment on Zymoseptoria tritici (setting [1]), < 80% with Zymoseptoria tritici (setting [2]), > 80% in the experiment on Puccinia triticina (setting [3]) and > 80% in the experiment with Puccinia triticina (setting [4]).

On to `COc1ccnc(C(=O)N[C@@H](C)C(=O)O[C@@H](C)[C@H](Oc2ccc(C)cc2Cl)c2ccccc2)c1O` [Example 149], for which the pest or weed control at 100 ppm with Zymoseptoria tritici (setting [1]), in the experiment on Zymoseptoria tritici (setting [2]), in the experiment with Puccinia triticina (setting [3]) and with Puccinia triticina (setting [4]) was > 80% in each case.

Turning to `COc1ccnc(C(=O)N[C@@H](C)C(=O)O[C@@H](C)[C@H](Oc2ccccc2)c2ccc(F)cc2C)c1O` [Example 162], the pest or weed control at 100 ppm with Zymoseptoria tritici (setting [1]), in the experiment on Zymoseptoria tritici (setting [2]), with Puccinia triticina (setting [3]) and with Puccinia triticina (setting [4]) was > 80% each time.

As to `COc1cc(F)ccc1[C@@H](OC(=O)C1CC1)[C@H](C)OC(=O)[C@H](C)NC(=O)c1nccc(OC)c1O` [Example 291], the pest or weed control at 100 ppm in the experiment on Zymoseptoria tritici (setting [1]) is < 0%; in the experiment on Zymoseptoria tritici (setting [2]), > 80%; in the experiment with Puccinia triticina (setting [3]) it was < 80%; with Puccinia triticina (setting [4]), < 80%.

With `COc1ccnc(C(=O)N[C@@H](C)C(=O)O[C@@H](C)[C@H](Oc2ccccc2)c2ccc(F)cc2F)c1OC(C)=O` [Example 251], the pest or weed control at 121.5 g/ha with Zymoseptoria tritici (setting [5]), with Zymoseptoria tritici (setting [6]), in the experiment on Puccinia triticina (setting [7]) and in the experiment with Puccinia triticina (setting [8]) was > 80% in each case.

Take `COc1ccnc(C(=O)N[C@@H](C)C(=O)O[C@@H](C)C(Oc2ccccc2)c2nccs2)c1OCOC(C)=O` (some centres unmarked) [Example 213]: the pest or weed control at 121.5 g/ha in the experiment on Zymoseptoria tritici (setting [5]) is < 0%; in the experiment with Zymoseptoria tritici (setting [6]), < 80%; with Puccinia triticina (setting [7]), > 80%; with Puccinia triticina (setting [8]), > 80%.

With `CC[C@H](NC(=O)c1nccc(OC)c1O)C(=O)O[C@@H](C)[C@H](Oc1cc(F)ccc1F)c1ccccc1` [Example 123], the pest or weed control at 100 ppm was < 80% in the experiment with Zymoseptoria tritici (setting [1]), < 80% in the experiment with Zymoseptoria tritici (setting [2]), > 80% in the experiment with Puccinia triticina (setting [3]) and < 80% with Puccinia triticina (setting [4]).

With `COc1ccnc(C(=O)N[C@@H](C)C(=O)O[C@@H](C)[C@H](Oc2ccc(F)cc2)c2ccc(C)cc2)c1OCOC(C)=O` [Example 253], the pest or weed control at 121.5 g/ha with Zymoseptoria tritici (setting [5]), with Zymoseptoria tritici (setting [6]), in the experiment with Puccinia triticina (setting [7]) and in the experiment with Puccinia triticina (setting [8]) was > 80% each time.

As to `COc1ccnc(C(=O)N[C@@H](C)C(=O)O[C@@H](C)[C@@H](OCC(C)C)c2ccccc2)c1OC(C)=O` [Example 224], the pest or weed control at 121.5 g/ha was < 80% with Zymoseptoria tritici (setting [5]), < 80% in the experiment with Zymoseptoria tritici (setting [6]), > 80% in the experiment with Puccinia triticina (setting [7]) and > 80% with Puccinia triticina (setting [8]).

In the case of `COc1ccnc(C(=O)N[C@@H](C)C(=O)O[C@@H](C)[C@H](Oc2cc(F)ccc2F)c2ccccc2)c1O` [Example 121], the pest or weed control at 100 ppm in the experiment with Zymoseptoria tritici (setting [1]) was < 80%; with Zymoseptoria tritici (setting [2]), > 80%; in the experiment on Puccinia triticina (setting [3]), > 80%; in the experiment with Puccinia triticina (setting [4]) it was < 80%.

In the case of `COc1ccnc(C(=O)N[C@@H](C)C(=O)O[C@@H](C)[C@@H](Oc2ccccc2)c2ccccc2)c1OC(=O)C(C)C` [Example 218], the pest or weed control at 121.5 g/ha is > 80% in the experiment on Zymoseptoria tritici (setting [5]), < 80% with Zymoseptoria tritici (setting [6]), < 0% in the experiment on Puccinia triticina (setting [7]) and < 0% in the experiment with Puccinia triticina (setting [8]).
